What all share (type): cell-based
The subject of assay [1] is Brevibacterium epidermidis ATCC 35514. The assay can be described thus: MIC determination, agar dilution method (DIN 58 940/58 944). Conditions: ATCC35514, Mueller-Hinton agar, aerobic, 18 h at 36° C., pure substance. The protocol:
(§1) To prepare various test concentrations 2.6 ml of a 3.3% stock solution (3.3 g 1,2-decanediol or comparison substance in 100 ml ethanol (96% in H2O; Merck, Cat. no. 1.00971)) was used at the starting material in each case. Further test concentrations (diluted sample) in the form of a geometric dilution series were prepared by progressive 2:1 dilution with ethanol (96%; Merck, Cat. no. 1.00971). Determination of the antimicrobial action of 1,2-decanediol (or of a comparison substance) was carried out with the aid of the agar dilution method based on DIN 58 940/ICS and DIN 58 944/ICS. Petri dishes 5.5 cm in diameter were filled with 8.7 ml freshly prepared Mueller-Hinton agar (Merck, Cat. no. 1.05437 or Wilkins-Chalgren agar boillon (sic), Oxoid, Cat. no. CM 643, supplemented with 10 g agar-agar/litre) kept liquid at 50° C., to which in each case 0.3 ml of the particular sample, that is to say 3.3% (V/V) based on the total volume of agar and sample, was added. By means of this further dilution of the undiluted stock solution and of the already diluted samples with the test agar (0.3 ml of the stock solution or of the corresponding diluted sample+8.7 ml agar) 30-fold lower end concentrations were prepared in each case (when using the stock solution an initial concentration of 1,100 ppm results). The concentrations given below are based on the pure substance and have been converted to ppm. 2 agar plates were cast per test concentration and nutrient medium. After solidification and drying (about 1 h at 37° C.), the test plates were inoculated in point form with, in each case, 1 μl of the test organism suspensions listed below. To check purity and identity, the aerobically growing bacteria Brevibacterium epidermidis, Corynebacterium xerosis; and Staphylococcus epidermidis were cultured on Columbia blood agar (BioMérieux, Cat. no. 43049). Further details on the test organisms can be taken from Table 2. [table] The preparation of the test organism suspensions of the test organisms for Brevibacterium epidermidis, Corynebacterium xerosis, and Staphylococcus epidermidis was carried out by incubation of Mueller-Hinton bouillon (Merck, Cat. no. 1.10293), which had been inoculated with a few individual colonies of the particular test organisms, at 36° C. After a distinct turbidity had been achieved, sterile nutrient bouillon was added to the suspensions in such an amount that the turbidity thereof corresponded to McFarland Standard 0.5 (approx. 10^8 CFU/ml). The inoculated plates were incubated under the conditions given in Table 3 and were then assessed. The MIC (minimum inhibitory concentration) was considered to be the lowest active compound concentration with which there is macroscopically no growth. Minimum, barely visible growth or a few small individual colonies were assessed as inhibition. [table] Suspensions of the microorganisms described above were incubated in accordance with the general test conditions described under 1. and the MIC values of 1,2-decanediol were determined (see Table 4). For reference purposes the MIC values for 1,2-octanediol were also determined.
On the technique in general: In agar dilution, organisms are placed on agar that contains the substance at set levels.

Assay [2] concerns Corynebacterium xerosis ATCC 7711. The description is as above. Conditions: ATCC7711, Mueller-Hinton agar, aerobic, 18 h at 36° C., pure substance. The protocol:
as §1

The subject of assay [3] is Staphylococcus epidermidis ATCC 12228. Described as above. Conditions: ATCC12228, Mueller-Hinton agar, aerobic, 18 h at 36° C., pure substance. The protocol: as §1
Assay [4] has as its system Corynebacterium xerosis (C. xerosis 7711). Nature of the assay: Growth curve, suspension test. Conditions: concentration 0.3% in AC medium; incubated 20, 60 and 180 min; compared with 1,2-octanediol and farnesol. The protocol: • AC medium: 37 g brain heart infusion, 5 g glucose, 1 ml Tween 80, made up to 1 l with H2O. Test Substances: • 1,2-Octanediol (0.3%) • 1,2-Decanediol (0.3%) • Farnesol (0.3%) Control: • AC medium without active compound Test Solutions: • Relevant test substance in AC medium Suspension Test (see FIG. 1) 60 ml AC medium were inoculated with 0.4 ml of a fresh overnight culture of the test organism Corynebacterium xerosis (C. xerosis 7711). The culture vessel was shaken at 30° C. and 250 rpm until a cell density of 10^5 to 10^6 cells/ml had been reached. The test substances were weighed out and in each case dissolved in 2.5 ml AC medium with brief heating to 60° C. The test solutions obtained in this way were then added to 2.5 ml bacterial suspension in each case and the mixtures were incubated for 20, 60 and 180 min maintaining the growth conditions. 100 μl of the incubated test solutions were then taken and the bacterial titre determined by plating-out on nutrient medium.

For assay [5], the system named is Staphylococcus epidermidis, Corynebacterium xerosis, Brevibacterium epidermidis. Nature of the assay: MIC determination, agar dilution method, summary over the three test organisms. Conditions: summary of Table 4 over all three test organisms. The protocol:
To prepare various test concentrations 2.6 ml of a 3.3% stock solution (3.3 g 1,2-decanediol or comparison substance in 100 ml ethanol (96% in H2O; Merck, Cat. no. 1.00971)) was used at the starting material in each case. Further test concentrations (diluted sample) in the form of a geometric dilution series were prepared by progressive 2:1 dilution with ethanol (96%; Merck, Cat. no. 1.00971). Determination of the antimicrobial action of 1,2-decanediol (or of a comparison substance) was carried out with the aid of the agar dilution method based on DIN 58 940/ICS and DIN 58 944/ICS. […] The inoculated plates were incubated under the conditions given in Table 3 and were then assessed. […] Minimum, barely visible growth or a few small individual colonies were assessed as inhibition. Suspensions of the microorganisms described above were incubated in accordance with the general test conditions described under 1. and the MIC values of 1,2-decanediol were determined (see Table 4). For reference purposes the MIC values for 1,2-octanediol were also determined.

The term MIC denotes the least concentration at which growth counts as inhibited. Higher therefore signals a need for much substance.

Values after ≈ are worked out from the molar mass of the structure shown.

`CCCCCCCCC(O)CO` (stereo not drawn) [1,2-Decanediol, 1,2-decanediol]: the minimum inhibitory concentration (MIC) in assay [1] came to 450 µg/mL (≈ 2.58 mM); in assay [2], 225 µg/mL (≈ 1.29 mM); in assay [3], 225 µg/mL (≈ 1.29 mM). Further, in assay [4], the “effectiveness in growth curve (bacterial titre)” value is on record as “by far the greatest effectiveness of the substances tested”. Further, the “MIC values (over the three test organisms)” value in assay [5] is given as “distinctly lower”.

Regarding `CCCCCCC(O)CO` (stereo not drawn) [1,2-Octanediol, 1,2-octanediol, reference compound], the MIC is 3600 µg/mL (≈ 24.6 mM) in assay [1], 3600 µg/mL (≈ 24.6 mM) in assay [2], 1800 µg/mL (≈ 12.3 mM) in assay [3] and 1800 to 3600 µg/mL (≈ 12.3 to 24.6 mM) in assay [5].
